Earlier results on six molecules are cited in patent US5370873A, “Therapeutic compounds derived from the neem tree” (priority 1992, dated 1994).

In series [1] the test system is murine P-388 lymphocytic leukemia cell line.
Series [2] deals with insect.
In series [3] the test system is Plasmodium falciparum.
The conditions of series [4]: in vivo.
Test in series [5]: not given
The source holds these as a separate data set.

Where two headings read alike, the source gives them in different places.

Consider 1,2-diapoxyazadiradione, for which, in series [1], the “ED50, murine P-388 lymphocytic leukemia cell line” value was 8.5 mg. 7-acetyl neotrichilenone: the “ED50, murine P-388 lymphocytic leukemia cell line” value in series [1] is given as 10 mg.

On to `C/C=C(\C)C(=O)O[C@H]1C[C@@H](OC(C)=O)[C@@]2(C(=O)OC)CO[C@H]3[C@@H](O)[C@@](C)([C@]45O[C@@]4(C)[C@H]4C[C@@H]5O[C@@H]5OC=C[C@@]54O)[C@H]4[C@]1(CO[C@]4(O)C(=O)OC)[C@@H]32` [azadiractin], for which, in series [2], the insect feeding repellency result was “very potent insect feeding repellents”. `CC(=O)O[C@@H]1C[C@H]2C(C)(C)C(=O)C=C[C@]2(C)[C@H]2CC[C@@]3(C)[C@H](c4ccoc4)OC(=O)[C@H]4O[C@]43[C@@]21C` [gedunin]: the “inhibition of development of Plasmodium falciparum in vitro” value in series [3] is given as “inhibit the development of the human malarial parasite Plasmodium falciparum in vitro”.

On to Neem oil, for which the “local or systemic side effects in human subjects” value in series [4] and in series [4] (po) was “no local or systemic side effects” in each case.

For nimbidin, the “systemic toxicity in dogs” value was “failed to demonstrate any systemic toxicity”. In addition, the “systemic toxicity in rats” value in series [5] is given as “failed to demonstrate any systemic toxicity”.
